Experimental data published in US20230066011A1, “PYRROLOPYRIMIDINE DERIVATIVE, AND PHARMACEUTICAL COMPOSITION FOR PREVENTING OR TREATING PROTEIN KINASE-RELATED DISEASE COMPRISING SAME AS ACTIVE INGREDIENT” (VORONOI CO., LTD., priority 2019, published 2023).
Each block holds one molecule with its values, some of them ahead of it.

Columns and labels:
Assay type in all cases: biochemical
human GST-CLK1 = target: T1, human GST-CLK1 (Homo sapiens, UniProt P49759); assay: GST-CLK1 enzyme inhibition, ADP-Glo kinase assay; conditions: ATP 10 μM, GST-CLK1 129-end
T1 construct: purified human GST-CLK1 (129-end, SignalChem) enzyme; purchased SignalChem
Method in brief: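 Human GST-CLK1 (129-end, 3 ng) reacted with substrate and 10 μM ATP for 1 h at 25° C in 40 mM Tris-HCl pH 7.4, 20 mM MgCl2, 0.5 mg/mL BSA, 50 μM DTT. ADP-Glo luminescence was normalised to solvent control; IC50 (nM) from 3 data sets.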

human GST-DYRK1A = target: T2, human GST-DYRK1A (Homo sapiens, UniProt Q13627); assay: GST-DYRK1A enzyme inhibition, ADP-Glo kinase assay; conditions: ATP 10 μM, GST-DYRK1A full length, read-out: DYRK1 IC50
T2 construct: purified human GST-DYRK1A (full length, Thermo Scientifics) enzyme; purchased Thermo Scientifics
Method in brief: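 Full-length human GST-DYRK1A (10 ng) with 10 μM ATP and specific substrate in 40 mM Tris-HCl pH 7.4, 20 mM MgCl2, 0.5 mg/mL BSA, 50 μM DTT, 1 h at 25 °C. ADP formation read by ADP-Glo luminescence relative to solvent control; IC50 from three data sets.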

LRRK2 = LRRK2 (Homo sapiens, UniProt Q5S007); assay: LRRK2 enzyme inhibition, ADP-Glo kinase assay; design: purchased Invitrogen PR8604B; conditions: ATP 10 μM
Method in brief: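 Purified human LRRK2 (25 ng) with 10 μM ATP and 0.2 μg substrate in 40 mM Tris-HCl pH 7.4, 20 mM MgCl2, 0.5 mg/mL BSA, 50 μM DTT, 2 h at 25° C. ADP-Glo luminescence; 12-point compound series from 50 μM final; IC50 relative to solvent control.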

LRRK2 (G2019S) = LRRK2 (G2019S) (Homo sapiens, UniProt Q5S007, G2019S); assay: LRRK2 G2019S enzyme inhibition, ADP-Glo kinase assay; design: purchased SignalChem L10-12GG; conditions: ATP 25 μM
Method in brief: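 Purified human LRRK2 G2019S (16 ng) with 25 μM ATP and 0.2 μg substrate, 2 h at 25° C. in Tris-HCl pH 7.4, MgCl2, BSA, DTT buffer; compounds at 12 final concentrations, 50 μM down to 0.000001024 μM. ADP-Glo luminescence versus solvent control gave IC50.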

Chain of LRRK2 (G2019S) (Q5S007 970-2527 G2019S limits assumed): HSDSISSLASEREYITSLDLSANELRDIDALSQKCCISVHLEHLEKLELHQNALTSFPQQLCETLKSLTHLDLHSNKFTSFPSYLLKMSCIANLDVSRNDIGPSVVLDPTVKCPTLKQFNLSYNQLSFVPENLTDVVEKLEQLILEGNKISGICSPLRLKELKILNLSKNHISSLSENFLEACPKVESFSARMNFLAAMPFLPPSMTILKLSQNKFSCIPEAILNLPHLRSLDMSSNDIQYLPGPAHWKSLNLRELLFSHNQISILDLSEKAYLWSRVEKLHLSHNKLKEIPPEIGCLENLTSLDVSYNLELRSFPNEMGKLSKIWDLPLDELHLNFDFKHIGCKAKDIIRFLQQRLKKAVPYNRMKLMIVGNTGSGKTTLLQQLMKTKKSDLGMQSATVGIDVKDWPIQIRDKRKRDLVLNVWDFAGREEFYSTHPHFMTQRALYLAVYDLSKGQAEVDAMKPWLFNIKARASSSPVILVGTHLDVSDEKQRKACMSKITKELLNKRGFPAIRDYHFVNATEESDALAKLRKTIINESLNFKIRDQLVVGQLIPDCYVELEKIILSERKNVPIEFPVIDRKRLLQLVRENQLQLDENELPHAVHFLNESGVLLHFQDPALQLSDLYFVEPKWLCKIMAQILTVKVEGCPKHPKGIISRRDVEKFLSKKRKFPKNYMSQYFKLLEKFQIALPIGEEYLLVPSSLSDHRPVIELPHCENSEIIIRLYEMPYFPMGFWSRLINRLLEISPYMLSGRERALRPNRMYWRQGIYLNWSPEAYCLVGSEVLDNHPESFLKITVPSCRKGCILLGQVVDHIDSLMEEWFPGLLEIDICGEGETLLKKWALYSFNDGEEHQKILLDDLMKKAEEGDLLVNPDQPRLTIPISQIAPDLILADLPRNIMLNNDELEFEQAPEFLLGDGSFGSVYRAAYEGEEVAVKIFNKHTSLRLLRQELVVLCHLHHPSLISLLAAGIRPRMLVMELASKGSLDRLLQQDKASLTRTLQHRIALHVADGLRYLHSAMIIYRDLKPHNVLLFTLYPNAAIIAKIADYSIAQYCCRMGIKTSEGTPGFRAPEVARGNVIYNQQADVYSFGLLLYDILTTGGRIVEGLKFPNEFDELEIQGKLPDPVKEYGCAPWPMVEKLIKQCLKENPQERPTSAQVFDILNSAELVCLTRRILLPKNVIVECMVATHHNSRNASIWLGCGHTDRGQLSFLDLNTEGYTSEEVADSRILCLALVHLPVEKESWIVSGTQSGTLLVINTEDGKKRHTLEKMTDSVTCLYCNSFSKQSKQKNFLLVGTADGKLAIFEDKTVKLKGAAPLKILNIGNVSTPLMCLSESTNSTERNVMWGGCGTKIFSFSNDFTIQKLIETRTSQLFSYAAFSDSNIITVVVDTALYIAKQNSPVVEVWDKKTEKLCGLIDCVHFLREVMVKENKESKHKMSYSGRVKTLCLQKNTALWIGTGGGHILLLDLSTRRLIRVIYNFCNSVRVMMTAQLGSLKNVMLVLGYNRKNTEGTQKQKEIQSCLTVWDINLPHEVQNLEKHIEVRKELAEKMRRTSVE
T1 sequence (P49759 129-484 limits assumed): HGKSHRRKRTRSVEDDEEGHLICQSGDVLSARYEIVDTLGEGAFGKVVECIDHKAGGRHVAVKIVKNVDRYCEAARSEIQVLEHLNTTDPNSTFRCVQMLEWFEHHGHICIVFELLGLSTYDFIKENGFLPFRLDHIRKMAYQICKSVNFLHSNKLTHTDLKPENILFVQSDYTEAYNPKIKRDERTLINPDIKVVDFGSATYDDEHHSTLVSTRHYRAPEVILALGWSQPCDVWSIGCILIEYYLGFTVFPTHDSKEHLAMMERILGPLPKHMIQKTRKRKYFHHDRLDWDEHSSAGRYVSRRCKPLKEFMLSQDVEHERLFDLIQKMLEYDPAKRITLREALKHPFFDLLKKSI
Chain of LRRK2 (Q5S007 970-2527 limits assumed): as the sequence (Q5S007 970-2527 G2019S limits assumed) above, with S1050G counted along it

SMILES: O=C(c1ccc(Nc2nc(NC3CC3)c3c(C(F)(F)F)c[nH]c3n2)c2c1OCCO2)N1CCC(N2CCOCC2)CC1 [Example 367, (8-((4-(cyclopropyl-amino)-5-(trifluoromethyl)-7H-pyrrolo[2,3-d]pyrimidin-2-yl)amino)-2,3-dihydrobenzo[b] [1,4]dioxin-5-yl)(4-morpho-linopiperidin-1-yl)methanone]
IC50 (human GST-CLK1): < 100 nM | IC50 (human GST-DYRK1A): 101 to 300 nM | IC50 (LRRK2): < 100 nM | IC50 (LRRK2 (G2019S)): < 100 nM

SMILES: CC[C@@H](C)Nc1nc(Nc2ccc(C(=O)N3CCOCC3)c3c2OCCO3)nc2[nH]cc(C(F)(F)F)c12 [Example 174, (R)-(8-((4-(sec-butylamino)-5-(trifluoromethyl)-7H-pyrrolo[2,3-d]pyrimidin-2-yl)amino)-2,3-dihydrobenzo[b][1,4]dioxin-5-y)(morpholino)methanone]
IC50 (human GST-CLK1): 301 to 1000 nM | IC50 (human GST-DYRK1A): 301 to 1000 nM | IC50 (LRRK2): < 100 nM | IC50 (LRRK2 (G2019S)): < 100 nM

SMILES: COc1cc(S(=O)(=O)N2CCC(N3CCOCC3)CC2)ccc1Nc1nc(NCC(C)C)c2c(C(F)(F)F)c[nH]c2n1 [Example 179, N^4-isobutyl-N^2-(2-methoxy-4-((4-morpholinopiperidin-1-yl)sulfonyl)phenyl)-5-(trifluoromethyl)-7H-pyrrolo[2,3-d]pyrimidine-2,4-diamine]
IC50 (human GST-CLK1): 301 to 1000 nM | IC50 (human GST-DYRK1A): 301 to 1000 nM | IC50 (LRRK2): < 100 nM | IC50 (LRRK2 (G2019S)): 101 to 300 nM

SMILES: CCNc1nc(Nc2ccc(C(=O)N3CCOCC3)c3c2OCCO3)nc2[nH]ccc12 [Example 58, (8-((4-(ethylamino)-7H-pyrrolo[2,3-d]pyrimidin-2-yl)amino)-2,3-dihydrobenzo[b][1,4]dioxin-5-yl)(morpholino)methanone 2,2,2-trifluoroacetate]
IC50 (human GST-CLK1): 301 to 1000 nM | IC50 (human GST-DYRK1A): 301 to 1000 nM | IC50 (LRRK2): < 100 nM | IC50 (LRRK2 (G2019S)): < 100 nM

SMILES: C=CCNc1nc(Nc2ccc(S(=O)(=O)N3CCOCC3)cc2OC)nc2[nH]ccc12 [Example 246, N4-allyl-N2-(2-methoxy-4-(morpholinosulfonyl)phenyl)-7H-pyrrolo[2,3-d]pyrimidine-2,4-diamine]
IC50 (human GST-CLK1): 301 to 1000 nM | IC50 (human GST-DYRK1A): 301 to 1000 nM | IC50 (LRRK2): < 100 nM | IC50 (LRRK2 (G2019S)): < 100 nM

SMILES: CNc1nc(Nc2ccc(C(=O)N3CCOCC3)c3c2OCCO3)nc2[nH]cc(C(F)(F)F)c12 [Example 155, (8-((4-(methyalmino)-5-(trifluoromethyl)-7H-pyrrolo[2,3-d]pyrimidin-2-yl)amino)-2,3-dihydrobenzo[b][1,4]dioxin-5-yl)(morpholino)methanone 2,2,2-trifluoroacetate]
IC50 (human GST-CLK1): < 100 nM | IC50 (human GST-DYRK1A): < 100 nM | IC50 (LRRK2): < 100 nM | IC50 (LRRK2 (G2019S)): < 100 nM

SMILES: COCCNc1nc(Nc2ccc(C(=O)N3CCOCC3)c3c2OCCO3)nc2[nH]cc(C(F)(F)F)c12 [Example 168, (8-((4-((2-methoxyethyl)amino)-5-(trifluoromethyl)-7H-pyrrolo[2,3-d]pyrimidin-2-yl)amino)-2,3-dihydrobenzo[b][1,4]dioxin-5-yl)(morpholino)methanone]
IC50 (human GST-CLK1): < 100 nM | IC50 (human GST-DYRK1A): < 100 nM | IC50 (LRRK2): < 100 nM | IC50 (LRRK2 (G2019S)): < 100 nM

SMILES: O=C(c1ccc(Nc2nc(NC3CCC3)c3c(C(F)(F)F)c[nH]c3n2)c2c1OCCO2)N1CCOCC1 [Example 185, (8-((4-(cyclobutylamino)-5-(trifluoromethyl)-7H-pyrrolo[2,3-d]pyrimidin-2-yl)amino)-2,3-dihydrobenzo[b][1,4]dioxin-5-yl)(morpholino)methanone]
IC50 (human GST-CLK1): 101 to 300 nM | IC50 (human GST-DYRK1A): 301 to 1000 nM | IC50 (LRRK2): < 100 nM | IC50 (LRRK2 (G2019S)): 101 to 300 nM

SMILES: CCCNc1nc(Nc2ccc(S(C)(=O)=O)cc2OC)nc2[nH]cc(C#N)c12 [Example 99, 2-((2-methoxy-4-(methylsulfonyl)phenyl)amino)-4-(propylamino)-7H-pyrrolo[2,3-d]pyrimidine-5-carbonitrile]
IC50 (human GST-CLK1): 301 to 1000 nM | IC50 (human GST-DYRK1A): 301 to 1000 nM | IC50 (LRRK2): < 100 nM | IC50 (LRRK2 (G2019S)): 101 to 300 nM

SMILES: CCCNc1nc(Nc2ccc(C(=O)N3CCOCC3)c3c2OCCO3)nc2[nH]cc(C#N)c12 [Example 120, 2-((8-(morpholine-4-carbonyl)-2,3-dihydrobenzo[b][1,4]dioxin-5-yl)amino)-4-(propylamino)-7H-pyrrolo[2,3-d]pyrimidine-5-carbonitrile]
IC50 (human GST-CLK1): < 100 nM | IC50 (human GST-DYRK1A): 101 to 300 nM | IC50 (LRRK2): < 100 nM | IC50 (LRRK2 (G2019S)): < 100 nM

SMILES: CNc1nc(Nc2ccc(C(=O)N3CCOCC3)c3c2OCCO3)nc2[nH]cc(C#N)c12 [Example 118, 4-(methylamino)-2-((8-(morpholine-4-carbonyl)-2,3-dihydrobenzo[b][1,4]dioxin-5-yl)amino)-7H-pyrrolo[2,3-d]pyrimidine-5-carbonitrile]
IC50 (human GST-CLK1): < 100 nM | IC50 (human GST-DYRK1A): 301 to 1000 nM | IC50 (LRRK2): < 100 nM | IC50 (LRRK2 (G2019S)): < 100 nM

More lines, now with the values ahead:

IC50 (human GST-CLK1): < 100 nM | IC50 (human GST-DYRK1A): 301 to 1000 nM | IC50 (LRRK2): < 100 nM | IC50 (LRRK2 (G2019S)): < 100 nM
SMILES: COc1cc(S(=O)(=O)N2CCC(N3CCOCC3)CC2)ccc1Nc1nc(NCCS(C)(=O)=O)c2c(C#N)c[nH]c2n1 [Example 96, 2-((2-methoxy-4-((4-morpholinopiperidin-1-yl)sulfonyl)phenyl)amino)-4-((2-(methylsulfonyl)ethyl)amino)-7H-pyrrolo[2,3-d]pyrimidine-5-carbonitrile]

IC50 (human GST-CLK1): < 100 nM | IC50 (human GST-DYRK1A): 301 to 1000 nM | IC50 (LRRK2): < 100 nM | IC50 (LRRK2 (G2019S)): < 100 nM
SMILES: N#Cc1c[nH]c2nc(Nc3ccc(C(=O)N4CCC(N5CCOCC5)CC4)c4c3OCCO4)nc(NC3CC3)c12 [Example 141, 4-(cyclopropylamino)-2-((8-(4-morpholinopiperidine-1-carbonyl)-2,3-dihydrobenzo[b][1,4]dioxin-5-yl)amino)-7H-pyrrolo[2,3-d]pyrimidine-5-carbonitrile]

IC50 (human GST-CLK1): 101 to 300 nM | IC50 (human GST-DYRK1A): 301 to 1000 nM | IC50 (LRRK2): < 100 nM | IC50 (LRRK2 (G2019S)): < 100 nM
SMILES: COc1cc(S(C)(=O)=O)ccc1Nc1nc(NC2CC2)c2c(C#N)c[nH]c2n1 [Example 104, 4-(cyclopropylamino)-2-((2-methoxy-4-(methylsulfonyl)phenyl)amino)-7H-pyrrolo[2,3-d]pyrimidine-5-carbonitrile]

IC50 (human GST-CLK1): 301 to 1000 nM | IC50 (human GST-DYRK1A): 301 to 1000 nM | IC50 (LRRK2): < 100 nM | IC50 (LRRK2 (G2019S)): 101 to 300 nM
SMILES: COc1cc(S(C)(=O)=O)ccc1Nc1nc(NC(C)C)c2c(C(F)(F)F)c[nH]c2n1 [Example 166, N^4-isopropyl-N^2-(2-methoxy-4-(methylsulfonyl)-phenyl)-5-(trifluoromethyl)-7H-pyrrolo[2,3-d]pyrimidine-2,4-diamine]

IC50 (human GST-CLK1): 301 to 1000 nM | IC50 (human GST-DYRK1A): 301 to 1000 nM | IC50 (LRRK2): 301 to 1000 nM | IC50 (LRRK2 (G2019S)): 301 to 1000 nM
SMILES: N#Cc1c[nH]c2nc(Nc3ccc(C(=O)N4CCOCC4)c4c3OCCO4)nc(NC3COC3)c12 [Example 135, 2-((8-(morpholine-4-carbonyl)-2,3-dihydrobenzo[b][1,4]dioxin-5-yl)amino)-4-(oxetan-3-ylamino)-7H-pyrrolo[2,3-d]pyrimdine-5-carbonitrile]

IC50 (human GST-CLK1): < 100 nM | IC50 (human GST-DYRK1A): 101 to 300 nM | IC50 (LRRK2): < 100 nM | IC50 (LRRK2 (G2019S)): < 100 nM
SMILES: CCNc1nc(Nc2ccc(C(=O)N3CCC(N4CCOCC4)CC3)c3c2OCCO3)nc2[nH]cc(C#N)c12 [Example 137, 4-(ethylamino)-2-((8-(4-morpholinopiperidine-1-carbonyl)-2,3-dihydrobenzo[b][1,4]dioxin-5-yl)amino)-7H-pyrrolo[2,3-d]pyrimidine-5-carbontrile]

IC50 (human GST-CLK1): < 100 nM | IC50 (human GST-DYRK1A): 101 to 300 nM | IC50 (LRRK2): < 100 nM | IC50 (LRRK2 (G2019S)): < 100 nM
SMILES: COCCNc1nc(Nc2ccc(C(=O)N3CCOCC3)c3c2OCCO3)nc2[nH]cc(C#N)c12 [Example 123, 4-((2-methoxyethyl)amino)-2-((8-(morpholine-4-carbonyl)-2,3-dihydrobenzo[b][1,4]dioxin-5-yl)amino)-7H-pyrrolo[2,3-d]pyrimidine-5-carbonitrile]

IC50 (human GST-CLK1): 301 to 1000 nM | IC50 (human GST-DYRK1A): 301 to 1000 nM | IC50 (LRRK2): 101 to 300 nM | IC50 (LRRK2 (G2019S)): 101 to 300 nM
SMILES: CCCNc1nc(Nc2ccc(S(C)(=O)=O)cc2OC)nc2[nH]cc(C(F)(F)F)c12 [Example 181, N^2-(2-methoxy-4-(methylsulfonyl)phenyl)-N^4-propyl-5-(trifluoromethyl)-7H-pyrrolo[2,3-d]pyrimidine-2,4-diamine]

IC50 (human GST-CLK1): < 100 nM | IC50 (human GST-DYRK1A): 101 to 300 nM | IC50 (LRRK2): < 100 nM | IC50 (LRRK2 (G2019S)): < 100 nM
SMILES: O=C(c1ccc(Nc2nc(NC3CCC3)c3c(C(F)(F)F)c[nH]c3n2)c2c1OCCO2)N1CCC(N2CCOCC2)CC1 [Example 378, (8-((4-(cyclobutyl-amino)-5-(trifluoromethyl)-7H-pyrrolo[2,3-d]pyrimidin-2-yl)amino)-2,3-dihydrobenzo[b] [1,4]dioxin-5-yl) (4-morpholino-piperidin-1-yl)methanone]
